Test results reported in the NIST ThermoML archive (doi:10.1021/je100832h).
± gives the expanded uncertainty stated by the source.

Columns and labels:
[1] = xn = mol fraction of the nth substance listed; conditions: 328.15 K, 101.32 kPa, Liquid, Vibrating tube method
[2] = excess molar enthalpy (molar enthalpy of mixing); xn = mol fraction of the nth substance listed; conditions: 101 kPa, Liquid, Calvet calorimetry

CCOC(C)=O [ethyl acetate] + CCCCCC
[1]
Conditions	mass density [kg/m3]
x1 = 0.5567	731.2 ± 1.1
x1 = 0.6075	743.4 ± 1.1
x1 = 0.6523	754.6 ± 1.2
x1 = 0.7238	773.4 ± 1.2
x1 = 0.7577	782.7 ± 1.3
x1 = 0.8221	800.9 ± 1.3
x1 = 0.8723	815.8 ± 1.4
x1 = 0.9135	828.6 ± 1.4
x1 = 0.9832	851.3 ± 1.6
x1 = 1	857.17 ± 0.68

[2]
Conditions	excess molar enthalpy [kcal/mol]
291.15 K, x1 = 0.0535	0.0674 ± 0.00167
291.15 K, x1 = 0.1148	0.139 ± 0.00311
291.15 K, x1 = 0.1974	0.215 ± 0.00454
291.15 K, x1 = 0.2736	0.275 ± 0.00598
291.15 K, x1 = 0.3368	0.309 ± 0.00669
291.15 K, x1 = 0.3855	0.33 ± 0.00717
291.15 K, x1 = 0.4401	0.344 ± 0.00741
291.15 K, x1 = 0.4918	0.348 ± 0.00741
291.15 K, x1 = 0.5333	0.345 ± 0.00741
291.15 K, x1 = 0.5714	0.341 ± 0.00717
291.15 K, x1 = 0.6212	0.329 ± 0.00693
291.15 K, x1 = 0.6753	0.309 ± 0.00669
291.15 K, x1 = 0.722	0.282 ± 0.00598
291.15 K, x1 = 0.7805	0.247 ± 0.00526
291.15 K, x1 = 0.8412	0.199 ± 0.0043
291.15 K, x1 = 0.8816	0.153 ± 0.00335
291.15 K, x1 = 0.9343	0.0937 ± 0.00215
291.15 K, x1 = 0.9802	0.0349 ± 0.000956
298.15 K, x1 = 0.0668	0.0865 ± 0.00191
298.15 K, x1 = 0.1168	0.137 ± 0.00311
298.15 K, x1 = 0.192	0.21 ± 0.00454
298.15 K, x1 = 0.2621	0.261 ± 0.0055
298.15 K, x1 = 0.3186	0.289 ± 0.00621
298.15 K, x1 = 0.3929	0.319 ± 0.00693
298.15 K, x1 = 0.439	0.329 ± 0.00693
298.15 K, x1 = 0.495	0.326 ± 0.00693
298.15 K, x1 = 0.5309	0.324 ± 0.00693
298.15 K, x1 = 0.5767	0.315 ± 0.00669
298.15 K, x1 = 0.6196	0.304 ± 0.00645
298.15 K, x1 = 0.6757	0.286 ± 0.00621
298.15 K, x1 = 0.7368	0.255 ± 0.0055
298.15 K, x1 = 0.7954	0.215 ± 0.00454
298.15 K, x1 = 0.8424	0.17 ± 0.00359
298.15 K, x1 = 0.8998	0.117 ± 0.00263
298.15 K, x1 = 0.9521	0.0605 ± 0.00143
318.15 K, x1 = 0.076	0.11 ± 0.00239
318.15 K, x1 = 0.1524	0.195 ± 0.0043
318.15 K, x1 = 0.2306	0.259 ± 0.0055
318.15 K, x1 = 0.3029	0.3 ± 0.00645
318.15 K, x1 = 0.3659	0.325 ± 0.00693
318.15 K, x1 = 0.4345	0.339 ± 0.00717
318.15 K, x1 = 0.488	0.338 ± 0.00717
318.15 K, x1 = 0.5143	0.335 ± 0.00717
318.15 K, x1 = 0.5368	0.333 ± 0.00717
318.15 K, x1 = 0.5617	0.331 ± 0.00717
318.15 K, x1 = 0.6098	0.32 ± 0.00693
318.15 K, x1 = 0.6645	0.301 ± 0.00645
318.15 K, x1 = 0.7202	0.273 ± 0.00598
318.15 K, x1 = 0.7788	0.235 ± 0.00502
318.15 K, x1 = 0.8406	0.184 ± 0.00406
318.15 K, x1 = 0.9004	0.125 ± 0.00263
318.15 K, x1 = 0.9547	0.0638 ± 0.00143
